Measurements taken from ChEMBL document CHEMBL5055617, “Conformational Constraint between Aromatic Residue Side Chains in the "Message" Sequence of the Peptide Arodyn Using Ring Closing Metathesis Results in a Potent and Selective Kappa Opioid Receptor Antagonist” (J Med Chem, 2021).
Each block holds one compound with its values, some of them ahead of it. Square brackets hold non-standard residues; d marks the D form. Peptide text beside a SMILES is read from it.

Tests used:
Mu-type opioid receptor = Mu-type opioid receptor (Homo sapiens, UniProt P35372); experiment: Displacement of [3H]-DAMGO from mu opioid receptor (unknown origin) expressed in CHO cells incubated for 90 mins in presence of peptidase inhibitors; type: cell-based
Mu-type opioid receptor, sequence (P35372 whole entry): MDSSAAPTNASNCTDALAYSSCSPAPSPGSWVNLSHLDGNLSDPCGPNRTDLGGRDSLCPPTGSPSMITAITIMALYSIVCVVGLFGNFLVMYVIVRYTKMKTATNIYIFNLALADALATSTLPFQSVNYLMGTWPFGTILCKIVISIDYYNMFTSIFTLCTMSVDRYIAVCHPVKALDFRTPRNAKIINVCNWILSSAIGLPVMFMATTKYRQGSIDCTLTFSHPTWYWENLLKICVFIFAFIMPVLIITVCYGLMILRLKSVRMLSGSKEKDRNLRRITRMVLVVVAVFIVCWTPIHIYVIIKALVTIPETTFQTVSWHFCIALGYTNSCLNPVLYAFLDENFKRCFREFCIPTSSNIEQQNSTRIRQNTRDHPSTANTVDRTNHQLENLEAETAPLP

Homo sapiens = species: Homo sapiens; experiment: Selectivity index, ratio of Ki for displacement of [3H]-DAMGO from MOR (unknown origin) expressed in CHO cells to Ki for displacement of [3H]-Diprenorphine from KOR (unknown origin) expressed in CHO cells; type: cell-based
[1] = biological target: T1, Kappa-type opioid receptor (Homo sapiens, UniProt P41145); experiment: Displacement of [3H]-Diprenorphine from kappa opiod receptor (unknown origin) expressed in CHO cells incubated for 90 mins in presence of peptidase inhibitors; type: cell-based
T1 sequence (P41145 whole entry): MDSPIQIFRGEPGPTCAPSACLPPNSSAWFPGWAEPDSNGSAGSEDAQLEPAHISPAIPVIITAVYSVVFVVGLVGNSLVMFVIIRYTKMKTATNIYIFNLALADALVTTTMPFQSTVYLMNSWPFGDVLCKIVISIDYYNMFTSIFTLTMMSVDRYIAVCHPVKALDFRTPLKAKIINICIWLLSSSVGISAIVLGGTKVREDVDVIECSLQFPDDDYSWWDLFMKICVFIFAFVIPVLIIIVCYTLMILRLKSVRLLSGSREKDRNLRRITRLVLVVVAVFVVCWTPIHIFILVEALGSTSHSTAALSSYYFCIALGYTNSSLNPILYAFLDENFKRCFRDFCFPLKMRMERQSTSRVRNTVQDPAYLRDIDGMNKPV

[2] = biological target: T1, Kappa-type opioid receptor; experiment: Antagonist activity at kappa opioid receptor (unkown origin) expressed in CHO cell membranes assessed as inhibition of Dyn A-(1-13)NH2 stimulated [35S]GTPgammaS binding incubated for 90 mins by liquid scintillation counting method; type: functional; conditions: Membrane, filed as antagonist

Structure (SMILES): C=CCOc1ccc(C[C@H](NC(=O)[C@H](Cc2ccccc2)NC(C)=O)C(=O)N[C@@H](Cc2ccc(OCC=C)cc2)C(=O)N[C@@H](CCCNC(=N)N)C(=O)N[C@@H](CC(C)C)C(=O)N[C@@H](CCCNC(=N)N)C(=O)N[C@@H](CCCNC(=N)N)C(=O)N[C@H](C)C(=O)N[C@@H](CCCNC(=N)N)C(=O)N2CCC[C@H]2C(=O)N[C@@H](CCCCN)C(N)=O)cc1
Ki (Mu-type opioid receptor): 1220 nM
Ratio Ki (Homo sapiens): 65
Ki [1]: 18.9 nM

Structure (SMILES): C=CCOc1cccc(C[C@H](NC(=O)[C@H](Cc2ccccc2)NC(C)=O)C(=O)N[C@@H](Cc2cccc(OCC=C)c2)C(=O)N[C@@H](CCCNC(=N)N)C(=O)N[C@@H](CC(C)C)C(=O)N[C@@H](CCCNC(=N)N)C(=O)N[C@@H](CCCNC(=N)N)C(=O)N[C@H](C)C(=O)N[C@@H](CCCNC(=N)N)C(=O)N2CCC[C@H]2C(=O)N[C@@H](CCCCN)C(N)=O)c1
Ki (Mu-type opioid receptor): 838 nM
Ratio Ki (Homo sapiens): 255
Ki [1]: 3.3 nM

Structure (SMILES): CC(=O)N[C@@H](Cc1ccccc1)C(=O)N[C@H]1Cc2ccc(cc2)OC/C=C/COc2ccc(cc2)C[C@@H](C(=O)N[C@@H](CCCNC(=N)N)C(=O)N[C@@H](CC(C)C)C(=O)N[C@@H](CCCNC(=N)N)C(=O)N[C@@H](CCCNC(=N)N)C(=O)N[C@H](C)C(=O)N[C@@H](CCCNC(=N)N)C(=O)N2CCC[C@H]2C(=O)N[C@@H](CCCCN)C(N)=O)NC1=O
Ki (Mu-type opioid receptor): 1370 nM
Ratio Ki (Homo sapiens): 93
Ki [1]: 14.7 nM
Kb [2]: 15 nM

Structure (SMILES): C=CCOc1ccc(C[C@H](NC(=O)[C@H](Cc2ccccc2)NC(C)=O)C(=O)N[C@@H](Cc2cccc(OCC=C)c2)C(=O)N[C@@H](CCCNC(=N)N)C(=O)N[C@@H](CC(C)C)C(=O)N[C@@H](CCCNC(=N)N)C(=O)N[C@@H](CCCNC(=N)N)C(=O)N[C@H](C)C(=O)N[C@@H](CCCNC(=N)N)C(=O)N2CCC[C@H]2C(=O)N[C@@H](CCCCN)C(N)=O)cc1
Ki (Mu-type opioid receptor): 1380 nM
Ratio Ki (Homo sapiens): 118
Ki [1]: 11.7 nM

Structure (SMILES): C=CCOc1ccc(C[C@H](NC(=O)[C@H](Cc2cccc(OCC=C)c2)NC(=O)[C@H](Cc2ccccc2)NC(C)=O)C(=O)N[C@@H](CCCNC(=N)N)C(=O)N[C@@H](CC(C)C)C(=O)N[C@@H](CCCNC(=N)N)C(=O)N[C@@H](CCCNC(=N)N)C(=O)N[C@H](C)C(=O)N[C@@H](CCCNC(=N)N)C(=O)N2CCC[C@H]2C(=O)N[C@@H](CCCCN)C(N)=O)cc1
Ki (Mu-type opioid receptor): 1330 nM
Ratio Ki (Homo sapiens): 32
Ki [1]: 41.2 nM

Ki (Mu-type opioid receptor): 1740 nM
Structure (SMILES): CC(=O)N[C@@H](Cc1ccccc1)C(=O)N[C@@H](Cc1ccccc1)C(=O)N[C@@H](Cc1ccccc1)C(=O)N[C@@H](CCCNC(=N)N)C(=O)N[C@@H](CC(C)C)C(=O)N[C@@H](CCCNC(=N)N)C(=O)N[C@@H](CCCNC(=N)N)C(=O)N[C@H](C)C(=O)N[C@@H](CCCNC(=N)N)C(=O)N1CCC[C@H]1C(=O)N[C@@H](CCCCN)C(N)=O (Ac-FFFRLRR[dA]RPK-NH2)
Ratio Ki (Homo sapiens): 174

Structure (SMILES): C=CCOc1ccc(C[C@H](NC(C)=O)C(=O)N[C@@H](Cc2cccc(OCC=C)c2)C(=O)N[C@@H](Cc2ccccc2)C(=O)N[C@@H](CCCNC(=N)N)C(=O)N[C@@H](CC(C)C)C(=O)N[C@@H](CCCNC(=N)N)C(=O)N[C@@H](CCCNC(=N)N)C(=O)N[C@H](C)C(=O)N[C@@H](CCCNC(=N)N)C(=O)N2CCC[C@H]2C(=O)N[C@@H](CCCCN)C(N)=O)cc1
Ki (Mu-type opioid receptor): 490 nM
Ratio Ki (Homo sapiens): 8
Ki [1]: 62.2 nM

Structure (SMILES): CC(=O)N[C@@H](Cc1ccccc1)C(=O)N[C@H]1Cc2ccc(cc2)OC/C=C/COc2cccc(c2)C[C@@H](C(=O)N[C@@H](CCCNC(=N)N)C(=O)N[C@@H](CC(C)C)C(=O)N[C@@H](CCCNC(=N)N)C(=O)N[C@@H](CCCNC(=N)N)C(=O)N[C@H](C)C(=O)N[C@@H](CCCNC(=N)N)C(=O)N2CCC[C@H]2C(=O)N[C@@H](CCCCN)C(N)=O)NC1=O
Ki (Mu-type opioid receptor): 607 nM
Ratio Ki (Homo sapiens): 31
Ki [1]: 19.8 nM

Structure (SMILES): C=CCOc1ccc(C[C@H](NC(C)=O)C(=O)N[C@@H](Cc2ccc(OCC=C)cc2)C(=O)N[C@@H](Cc2ccccc2)C(=O)N[C@@H](CCCNC(=N)N)C(=O)N[C@@H](CC(C)C)C(=O)N[C@@H](CCCNC(=N)N)C(=O)N[C@@H](CCCNC(=N)N)C(=O)N[C@H](C)C(=O)N[C@@H](CCCNC(=N)N)C(=O)N2CCC[C@H]2C(=O)N[C@@H](CCCCN)C(N)=O)cc1
Ki (Mu-type opioid receptor): 221 nM
Ratio Ki (Homo sapiens): 18
Ki [1]: 12.1 nM

Structure (SMILES): C=CCOc1cccc(C[C@H](NC(C)=O)C(=O)N[C@@H](Cc2cccc(OCC=C)c2)C(=O)N[C@@H](Cc2ccccc2)C(=O)N[C@@H](CCCNC(=N)N)C(=O)N[C@@H](CC(C)C)C(=O)N[C@@H](CCCNC(=N)N)C(=O)N[C@@H](CCCNC(=N)N)C(=O)N[C@H](C)C(=O)N[C@@H](CCCNC(=N)N)C(=O)N2CCC[C@H]2C(=O)N[C@@H](CCCCN)C(N)=O)c1
Ki (Mu-type opioid receptor): 491 nM
Ratio Ki (Homo sapiens): 7
Ki [1]: 65.8 nM

Structure (SMILES): CC(=O)N[C@H]1Cc2cccc(c2)OC/C=C/COc2ccc(cc2)C[C@@H](C(=O)N[C@@H](Cc2ccccc2)C(=O)N[C@@H](CCCNC(=N)N)C(=O)N[C@@H](CC(C)C)C(=O)N[C@@H](CCCNC(=N)N)C(=O)N[C@@H](CCCNC(=N)N)C(=O)N[C@H](C)C(=O)N[C@@H](CCCNC(=N)N)C(=O)N2CCC[C@H]2C(=O)N[C@@H](CCCCN)C(N)=O)NC1=O
Ki (Mu-type opioid receptor): 657 nM
Ratio Ki (Homo sapiens): 22
Ki [1]: 29.2 nM

Structure (SMILES): CC(=O)N[C@@H](Cc1ccccc1)C(=O)N[C@H]1Cc2cccc(c2)OC/C=C\COc2cccc(c2)C[C@@H](C(=O)N[C@@H](CCCNC(=N)N)C(=O)N[C@@H](CC(C)C)C(=O)N[C@@H](CCCNC(=N)N)C(=O)N[C@@H](CCCNC(=N)N)C(=O)N[C@H](C)C(=O)N[C@@H](CCCNC(=N)N)C(=O)N2CCC[C@H]2C(=O)N[C@@H](CCCCN)C(N)=O)NC1=O
Ki (Mu-type opioid receptor): 828 nM
Ratio Ki (Homo sapiens): 54
Ki [1]: 15.4 nM

Structure (SMILES): C=CCOc1ccc(C[C@H](NC(=O)[C@H](Cc2cccc(OCC=C)c2)NC(C)=O)C(=O)N[C@@H](Cc2ccccc2)C(=O)N[C@@H](CCCNC(=N)N)C(=O)N[C@@H](CC(C)C)C(=O)N[C@@H](CCCNC(=N)N)C(=O)N[C@@H](CCCNC(=N)N)C(=O)N[C@H](C)C(=O)N[C@@H](CCCNC(=N)N)C(=O)N2CCC[C@H]2C(=O)N[C@@H](CCCCN)C(N)=O)cc1
Ki (Mu-type opioid receptor): 478 nM
Ratio Ki (Homo sapiens): 11
Ki [1]: 43.2 nM

Structure (SMILES): CC(=O)N[C@@H](Cc1ccccc1)C(=O)N[C@H]1Cc2cccc(c2)OC/C=C/COc2ccc(cc2)C[C@@H](C(=O)N[C@@H](CCCNC(=N)N)C(=O)N[C@@H](CC(C)C)C(=O)N[C@@H](CCCNC(=N)N)C(=O)N[C@@H](CCCNC(=N)N)C(=O)N[C@H](C)C(=O)N[C@@H](CCCNC(=N)N)C(=O)N2CCC[C@H]2C(=O)N[C@@H](CCCCN)C(N)=O)NC1=O
Ki (Mu-type opioid receptor): 1960 nM
Ratio Ki (Homo sapiens): 50
Ki [1]: 39.2 nM

Structure (SMILES): CC(=O)N[C@H]1Cc2ccc(cc2)OC/C=C/COc2cccc(c2)C[C@@H](C(=O)N[C@@H](Cc2ccccc2)C(=O)N[C@@H](CCCNC(=N)N)C(=O)N[C@@H](CC(C)C)C(=O)N[C@@H](CCCNC(=N)N)C(=O)N[C@@H](CCCNC(=N)N)C(=O)N[C@H](C)C(=O)N[C@@H](CCCNC(=N)N)C(=O)N2CCC[C@H]2C(=O)N[C@@H](CCCCN)C(N)=O)NC1=O
Ki (Mu-type opioid receptor): 501 nM
Ratio Ki (Homo sapiens): 9
Ki [1]: 56.7 nM

Structure (SMILES): CC(=O)N[C@H]1Cc2cccc(c2)OC/C=C/COc2cccc(c2)C[C@@H](C(=O)N[C@@H](Cc2ccccc2)C(=O)N[C@@H](CCCNC(=N)N)C(=O)N[C@@H](CC(C)C)C(=O)N[C@@H](CCCNC(=N)N)C(=O)N[C@@H](CCCNC(=N)N)C(=O)N[C@H](C)C(=O)N[C@@H](CCCNC(=N)N)C(=O)N2CCC[C@H]2C(=O)N[C@@H](CCCCN)C(N)=O)NC1=O
Ki (Mu-type opioid receptor): 1630 nM
Ratio Ki (Homo sapiens): 24
Ki [1]: 68.2 nM

Structure (SMILES): CC(=O)N[C@H]1Cc2ccc(cc2)OC/C=C/COc2ccc(cc2)C[C@@H](C(=O)N[C@@H](Cc2ccccc2)C(=O)N[C@@H](CCCNC(=N)N)C(=O)N[C@@H](CC(C)C)C(=O)N[C@@H](CCCNC(=N)N)C(=O)N[C@@H](CCCNC(=N)N)C(=O)N[C@H](C)C(=O)N[C@@H](CCCNC(=N)N)C(=O)N2CCC[C@H]2C(=O)N[C@@H](CCCCN)C(N)=O)NC1=O
Ki (Mu-type opioid receptor): 1430 nM
Ratio Ki (Homo sapiens): 123
Ki [1]: 11.7 nM
Kb [2]: 288 nM
